Consider one molecule from patent US11141374B2, “Natural skin care compositions and methods for treating oxidative stress and restoring skin health” (CODEX BEAUTY CORPORATION, priority 2019, dated 2021).

The assay relates to normal human-derived epidermal keratinocytes. Kind of assay: in-vitro thymidine dimer assay after UVB, epidermis skin model. The format is cell-based. The following applies: 7 days treatment, UVB 300 mJ/cm^2; Trolox 50 ug/ml, Aristotelia chilensis 5%, Ugni molinae 4%. The procedure:
Leaf extracts Aristotelia chilensis and Ugni molinae were evaluated to determine their ability to prevent undesirable thymidine dimer formation upon exposure to UVB radiation. When skin is exposed to UVB radiation, thymidine bases in the DNA can absorb the UVB radiation to form thymidine dimers (also known as thymine dimers) in DNA, complicating the cell's efforts to replicate DNA and to properly function. In this experiment, an in-vitro thymidine dimer assay was performed using a skin model consisting of normal human-derived epidermal keratinocytes cultured to form a multilayered model of the human epidermis. […] The primary antibody was then detected with a secondary antibody conjugated to a fluorescent dye. The membrane was then scanned with an excitation laser and emission filter combo specific to the fluorescent dye, so that the fluorescence intensity of each sample was proportional to the amount of thymidine dimers present in the sample and a lower fluorescence intensity advantageously indicates lower levels of cellular damage from UVB radiation. The results of the thymidine dimer assay are found in Table 1, below, expressed as mean Relative Fluorescence Units (RFU)±standard deviation.

For `Cc1c(C)c2c(c(C)c1O)CCC(C)(C(=O)O)O2` (stereo not shown) [Trolox], the “Corrected RFU (thymidine dimers), mean ± standard deviation” value came out at 4.380 ± 393.00 RFU.
